Source: patent US8802597B2, “Herbicidal pyrimidines” (E I du Pont de Nemours and Company, priority 2003, dated 2014)

How the values were obtained:
Test in all cases: Test G pre/postemergence
Type in all cases: in vivo
[1] = test system: common ragweed (Ambrosia elatior)
Method in brief: (§1)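 Visual scores from 0 (no effect) to 100 (complete control) were assigned relative to untreated controls 12 to 21 days after treatment. Compounds, formulated in a non-phytotoxic solvent mixture with surfactant, were applied preemergence to planted seed or postemergence to plants at the 1- to 4-leaf stage (2 to 18 cm).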

[2] = test system: common mallow (Malva sylvestris)
Method in brief: as §1

[3] = test system: annual bluegrass (Poa annua)
Method in brief: as §1

[4] = test system: Italian ryegrass (Lolium multiflorum)
Method in brief: as §1

[5] = test system: quackgrass (Elytrigia repens)
Method in brief: as §1

[6] = test system: Surinam grass (Brachiaria decumbens)
Method in brief: as §1

[7] = test system: itchgrass (Rottboellia cochinchinensis)
Method in brief: as §1

[8] = test system: broadleaf signalgrass (Brachiaria platyphylla)
Method in brief: as §1

[9] = test system: johnsongrass (Sorghum halepense)
Method in brief: as §1

[10] = test system: southern sandbur (Cenchrus echinatus)
Method in brief: as §1

[11] = test system: guineagrass (Panicum maximum)
Method in brief: as §1

[12] = test system: barnyardgrass (Echinochloa crus-galli)
Method in brief: as §1

[13] = test system: field bindweed (Convolvulus arvensis)
Method in brief: as §1

[14] = test system: downy bromegrass (Bromus tectorum)
Method in brief: as §1

[15] = Postemergence, 250 g ai/ha, scale 0 to 100
[16] = Postemergence, 500 g ai/ha, scale 0 to 100
[17] = Postemergence, 62 g ai/ha, scale 0 to 100
[18] = Postemergence, 125 g ai/ha, scale 0 to 100
[19] = Postemergence, 375 g ai/ha, scale 0 to 100
[20] = Preemergence, 62 g ai/ha, scale 0-100
[21] = Preemergence, 125 g ai/ha, scale 0-100
[22] = Preemergence, 250 g ai/ha, scale 0-100
[23] = Preemergence, 500 g ai/ha, scale 0-100
[24] = Preemergence, 500 g ai/ha, scale 0 to 100
[25] = Preemergence, 375 g ai/ha, scale 0 to 100

SMILES: CCOC(=O)c1nc(C2CC2)nc(N)c1Br [Compound 1, ethyl 6-amino-5-bromo-2-cyclopropyl-4-pyrimidinecarboxylate]
- Plant response rating, Ragweed [1, 15]: 95
- Plant response rating, Ragweed [1, 16]: 100
- Plant response rating, Ragweed [1, 17]: 75
- Plant response rating, Ragweed [1, 18]: 95
- Plant response rating, Ragweed [1, 19]: 100
- Plant response rating, Ragweed [1, 20]: 50
- Plant response rating, Ragweed [1, 21]: 95
- Plant response rating, Ragweed [1, 22]: 100
- Plant response rating, Ragweed [1, 23]: 100
- Plant response rating, Ragweed [1, 24]: 100
- Plant response rating, Mallow [2, 15]: 70
- Plant response rating, Mallow [2, 16]: 95
- Plant response rating, Mallow [2, 17]: 50
- Plant response rating, Mallow [2, 18]: 60
- Plant response rating, Mallow [2, 19]: 95
- Plant response rating, Mallow [2, 20]: 50
- Plant response rating, Mallow [2, 21]: 80
- Plant response rating, Mallow [2, 22]: 95
- Plant response rating, Mallow [2, 23]: 95
- Plant response rating, Mallow [2, 24]: 95
- Plant response rating, Bluegrass [3, 15]: 40
- Plant response rating, Bluegrass [3, 16]: 50
- Plant response rating, Bluegrass [3, 17]: 20
- Plant response rating, Bluegrass [3, 18]: 30
- Plant response rating, Bluegrass [3, 19]: 50
- Plant response rating, Bluegrass [3, 20]: 10
- Plant response rating, Bluegrass [3, 21]: 30
- Plant response rating, Bluegrass [3, 22]: 85
- Plant response rating, Bluegrass [3, 24]: 85
- Plant response rating, Ryegrass, Italian [4, 15]: 40
- Plant response rating, Ryegrass, Italian [4, 16]: 40
- Plant response rating, Ryegrass, Italian [4, 17]: 0
- Plant response rating, Ryegrass, Italian [4, 18]: 10
- Plant response rating, Ryegrass, Italian [4, 19]: 40
- Plant response rating, Ryegrass, Italian [4, 20]: 0
- Plant response rating, Ryegrass, Italian [4, 21]: 10
- Plant response rating, Ryegrass, Italian [4, 22]: 30
- Plant response rating, Ryegrass, Italian [4, 23]: 95
- Plant response rating, Ryegrass, Italian [4, 24]: 95
- Plant response rating, Quackgrass [5, 15]: 60
- Plant response rating, Quackgrass [5, 16]: 70
- Plant response rating, Quackgrass [5, 17]: 10
- Plant response rating, Quackgrass [5, 18]: 30
- Plant response rating, Quackgrass [5, 19]: 70
- Plant response rating, Quackgrass [5, 20]: 10
- Plant response rating, Quackgrass [5, 21]: 60
- Plant response rating, Quackgrass [5, 22]: 90
- Plant response rating, Quackgrass [5, 23]: 95
- Plant response rating, Quackgrass [5, 24]: 95
- Plant response rating, Surinam Grass [6, 15]: 85
- Plant response rating, Surinam Grass [6, 16]: 90
- Plant response rating, Surinam Grass [6, 17]: 30
- Plant response rating, Surinam Grass [6, 18]: 60
- Plant response rating, Surinam Grass [6, 19]: 90
- Plant response rating, Surinam Grass [6, 20]: 95
- Plant response rating, Surinam Grass [6, 21]: 95
- Plant response rating, Surinam Grass [6, 22]: 95
- Plant response rating, Surinam Grass [6, 23]: 95
- Plant response rating, Surinam Grass [6, 24]: 100
- Plant response rating, Itchgrass [7, 15]: 60
- Plant response rating, Itchgrass [7, 16]: 70
- Plant response rating, Itchgrass [7, 17]: 20
- Plant response rating, Itchgrass [7, 18]: 40
- Plant response rating, Itchgrass [7, 19]: 60
- Plant response rating, Itchgrass [7, 20]: 10
- Plant response rating, Itchgrass [7, 21]: 30
- Plant response rating, Itchgrass [7, 22]: 80
- Plant response rating, Itchgrass [7, 23]: 85
- Plant response rating, Itchgrass [7, 24]: 90
- Plant response rating, Signalgrass [8, 15]: 75
- Plant response rating, Signalgrass [8, 16]: 85
- Plant response rating, Signalgrass [8, 17]: 20
- Plant response rating, Signalgrass [8, 18]: 60
- Plant response rating, Signalgrass [8, 19]: 75
- Plant response rating, Signalgrass [8, 20]: 10
- Plant response rating, Signalgrass [8, 21]: 70
- Plant response rating, Signalgrass [8, 22]: 75
- Plant response rating, Signalgrass [8, 23]: 75
- Plant response rating, Signalgrass [8, 24]: 95
- Plant response rating, Johnsongrass [9, 15]: 95
- Plant response rating, Johnsongrass [9, 16]: 95
- Plant response rating, Johnsongrass [9, 17]: 70
- Plant response rating, Johnsongrass [9, 18]: 70
- Plant response rating, Johnsongrass [9, 19]: 95
- Plant response rating, Johnsongrass [9, 20]: 20
- Plant response rating, Johnsongrass [9, 21]: 40
- Plant response rating, Johnsongrass [9, 22]: 60
- Plant response rating, Johnsongrass [9, 23]: 75
- Plant response rating, Johnsongrass [9, 24]: 75
- Plant response rating, Sandbur [10, 15]: 95
- Plant response rating, Sandbur [10, 16]: 95
- Plant response rating, Sandbur [10, 17]: 30
- Plant response rating, Sandbur [10, 18]: 60
- Plant response rating, Sandbur [10, 19]: 95
- Plant response rating, Sandbur [10, 20]: 0
- Plant response rating, Sandbur [10, 21]: 30
- Plant response rating, Sandbur [10, 22]: 70
- Plant response rating, Sandbur [10, 23]: 85
- Plant response rating, Sandbur [10, 24]: 85
- Plant response rating, Guineagrass [11, 15]: 95
- Plant response rating, Guineagrass [11, 16]: 95
- Plant response rating, Guineagrass [11, 17]: 60
- Plant response rating, Guineagrass [11, 18]: 70
- Plant response rating, Guineagrass [11, 20]: 70
- Plant response rating, Guineagrass [11, 21]: 70
- Plant response rating, Guineagrass [11, 22]: 85
- Plant response rating, Guineagrass [11, 24]: 100
- Plant response rating, Guineagrass [11, 25]: 100
- Plant response rating, Barnyardgrass [12, 15]: 70
- Plant response rating, Barnyardgrass [12, 16]: 75
- Plant response rating, Barnyardgrass [12, 17]: 60
- Plant response rating, Barnyardgrass [12, 18]: 60
- Plant response rating, Barnyardgrass [12, 19]: 70
- Plant response rating, Barnyardgrass [12, 20]: 0
- Plant response rating, Barnyardgrass [12, 21]: 20
- Plant response rating, Barnyardgrass [12, 22]: 50
- Plant response rating, Barnyardgrass [12, 24]: 70
- Plant response rating, Barnyardgrass [12, 25]: 70
- Plant response rating, Bindweed, Field [13, 15]: 95
- Plant response rating, Bindweed, Field [13, 16]: 95
- Plant response rating, Bindweed, Field [13, 17]: 90
- Plant response rating, Bindweed, Field [13, 18]: 95
- Plant response rating, Bindweed, Field [13, 19]: 95
- Plant response rating, Bindweed, Field [13, 20]: 95
- Plant response rating, Bindweed, Field [13, 21]: 100
- Plant response rating, Bindweed, Field [13, 22]: 100
- Plant response rating, Bindweed, Field [13, 24]: 100
- Plant response rating, Bindweed, Field [13, 25]: 100
- Plant response rating, Bromegrass, Downy [14, 15]: 60
- Plant response rating, Bromegrass, Downy [14, 16]: 80
- Plant response rating, Bromegrass, Downy [14, 17]: 30
- Plant response rating, Bromegrass, Downy [14, 18]: 30
- Plant response rating, Bromegrass, Downy [14, 19]: 70
- Plant response rating, Bromegrass, Downy [14, 20]: 0
- Plant response rating, Bromegrass, Downy [14, 21]: 20
- Plant response rating, Bromegrass, Downy [14, 22]: 95
- Plant response rating, Bromegrass, Downy [14, 24]: 95
- Plant response rating, Bromegrass, Downy [14, 25]: 95

SMILES: CCOC(=O)c1nc(C2CC2)nc(N)c1Cl [Compound 4, ethyl 6-amino-5-chloro-2-cyclopropyl-4-pyrimidinecarboxylate]
- Plant response rating, Ragweed [1, 20]: 80
- Plant response rating, Ragweed [1, 21]: 100
- Plant response rating, Ragweed [1, 22]: 100
- Plant response rating, Ragweed [1, 24]: 100
- Plant response rating, Mallow [2, 20]: 100
- Plant response rating, Mallow [2, 21]: 100
- Plant response rating, Mallow [2, 22]: 100
- Plant response rating, Mallow [2, 24]: 100
- Plant response rating, Bluegrass [3, 20]: 10
- Plant response rating, Bluegrass [3, 21]: 60
- Plant response rating, Bluegrass [3, 22]: 80
- Plant response rating, Bluegrass [3, 24]: 100
- Plant response rating, Ryegrass, Italian [4, 20]: 30
- Plant response rating, Ryegrass, Italian [4, 21]: 60
- Plant response rating, Ryegrass, Italian [4, 22]: 100
- Plant response rating, Ryegrass, Italian [4, 24]: 100
- Plant response rating, Quackgrass [5, 20]: 60
- Plant response rating, Quackgrass [5, 21]: 90
- Plant response rating, Quackgrass [5, 22]: 100
- Plant response rating, Quackgrass [5, 24]: 100
- Plant response rating, Surinam Grass [6, 20]: 30
- Plant response rating, Surinam Grass [6, 21]: 60
- Plant response rating, Surinam Grass [6, 22]: 80
- Plant response rating, Surinam Grass [6, 24]: 95
- Plant response rating, Itchgrass [7, 20]: 70
- Plant response rating, Itchgrass [7, 21]: 70
- Plant response rating, Itchgrass [7, 22]: 80
- Plant response rating, Itchgrass [7, 24]: 95
- Plant response rating, Signalgrass [8, 20]: 50
- Plant response rating, Signalgrass [8, 21]: 70
- Plant response rating, Signalgrass [8, 22]: 95
- Plant response rating, Signalgrass [8, 24]: 95
- Plant response rating, Johnsongrass [9, 20]: 60
- Plant response rating, Johnsongrass [9, 21]: 75
- Plant response rating, Johnsongrass [9, 22]: 85
- Plant response rating, Johnsongrass [9, 24]: 95
- Plant response rating, Sandbur [10, 20]: 30
- Plant response rating, Sandbur [10, 21]: 80
- Plant response rating, Sandbur [10, 22]: 90
- Plant response rating, Sandbur [10, 24]: 100
- Plant response rating, Guineagrass [11, 20]: 95
- Plant response rating, Guineagrass [11, 21]: 95
- Plant response rating, Guineagrass [11, 22]: 100
- Plant response rating, Guineagrass [11, 24]: 100
- Plant response rating, Barnyardgrass [12, 20]: 50
- Plant response rating, Barnyardgrass [12, 21]: 70
- Plant response rating, Barnyardgrass [12, 22]: 80
- Plant response rating, Barnyardgrass [12, 24]: 100
- Plant response rating, Bindweed, Field [13, 20]: 100
- Plant response rating, Bindweed, Field [13, 21]: 100
- Plant response rating, Bindweed, Field [13, 22]: 100
- Plant response rating, Bindweed, Field [13, 24]: 100
- Plant response rating, Bromegrass, Downy [14, 20]: 30
- Plant response rating, Bromegrass, Downy [14, 21]: 70
- Plant response rating, Bromegrass, Downy [14, 22]: 100
- Plant response rating, Bromegrass, Downy [14, 24]: 100
